Source: patent publication US4803208A, “Opiate agonists and antagonists” (Sloan-Kettering Institute For Cancer Research, priority 1985, dated 1989)
Structures can show the parent of a compound that is named as a salt. Where two headings read alike, the source gives them in different places.

What was measured:
prolactin release = assay: Prolactin release in vivo; details: prolactin and growth hormone
growth hormone release = assay: Growth hormone release in vivo; details: prolactin and growth hormone
opiate receptors [1] = assay: Irreversible opiate receptor binding/blocking (general statements); details: for potency of irreversible block of opiate binding in vitro relative to corresponding hydrazone: azine vs corresponding hydrazone; for removal of reversible ligand by washing (in words): two washes with incubation at 37° for 10 min
Description: (§1) In brief, brain membranes were prepared and triplicate samples incubated with [^3 H] labelled ligands and designated drugs for 30 minutes at 25° C., followed by filtration over Whatman GF/B filters. […] Specific binding is defined as the difference in binding in the presence and absence of levallorphan (1 uM). […] Each tissue wash included incubation for 10 min. at 37° C., centrifugation and resuspension. Irreversibility experiments included four washes before binding assays were performed, unless otherwise stated.

opiate receptors [2] = format: binding, rat; details: for Change in Binding (Percent), [^3 H]D-ala^2 -D-leu^5 -enkephalin: compound 2 μM, 30 min 25° C., four washes, ligand 1 nM, mean ± s.e.m. of three experiments; for irreversible inhibition of [^3 H]D-ala^2 -D-leu^5 -enkephalin binding (in words): 2 μM
Description: as §1
(§2) To determine which compounds did irreversibly bind to the receptor, membranes were incubated with the various drugs (2 μM) and then the free and reversibly bound drug washed away (Table 2).
(§3) Rat brain membranes were prepared and incubated with the above drugs (2 μM) for 30 min at 25° C. and the tissue was then washed four times as described in the text to remove reversibly bound material. The results represent the means ±s.e.m. of three separate experiments utilizing [^3 H]D-ala^2 -D-leu^5 -enkephal in (1 nM) and [^3 H]dihydromorphine (0.8 nM). […] After 15 min the solution was added to tissue.

Duration of action = format: in vivo; details: compared to conventional / currently available opiates
[3] = Reaction of hydrazones to azines in solution; details: acidic aqueous solutions; absolute ethanol or water/acetic acid (1%), 15 min
opiate receptors [4] = target: T1, opiate receptors (Rattus norvegicus, UniProt P33535); assay: biochemical; format: binding
T1 construct: Rat brain homogenates were prepared as described; from tissue; host or cells: rat brain homogenate / membranes
Description: as §1
IC50 values were determined by least square fits of a log-probit curve. The results are the means ±s.e.m. of three IC50 values determined in separate experiments.

opiate receptors [5] = target: T1, opiate receptors; assay: biochemical; format: binding; details: for irreversible inhibition of [^3 H]dihydromorphine binding (in words): 2 μM, various concentrations in b75 (FIG. 2); for inhibition at 2 µM: 0.5 h, read-out: Change in Binding (Percent), [^3 H]dihydromorphine
Description: Results are from a single experiment which has been replicated three times.
as §1, §2, §3
After incubating membranes with the specified drug, the membranes were extensively washed and a binding assay with [^3 H]dihydromorphine performed.

opiate receptors [6] = assay: Irreversible inhibition of ^3 H-DADL binding, 100 nM, two washes; design: species or system rat; details: for ^3 H-DADL Binding: 30 min 25° C., DADL 1 nM, control 1800 ± 53 cpm, triplicate ± S.E.M.; for ^3 H-DADL Binding, change: vs control, 30 min
Description: (§4) Each wash consisted of centrifugation, incubation at 37° for 10 min and centrifugation again. […] Bindig was then performed with either ^3 H-D-ala^2 -D-leu^5 -enkephalin (DADL) or ^3 H-dihydromorphine (DHM) both at 1 nM. Specific binding was determined as that displaceable by levallorphan at 1000 nM. All values represent the means of triplicate samples ±S.E.M.

opiate receptors [7] = target: T1, opiate receptors; assay: Irreversible inhibition of ^3 H-DHM binding, 100 nM, two washes; details: for ^3 H-DHM Binding: 100 nM, 30 min 25° C., two washes, DHM 1 nM, control 3447 ± 273 cpm, triplicate ± S.E.M.; for inhibition at 0.1 µM: 0.5 h, read-out: ^3 H-DHM Binding, change
Description: as §4

mice [8] = assay: In vivo actions of naltrexone-oxymorphonazine (tailflick latencies); design: species or system mouse; details: for Tailflick Latencies, Prior: baseline prior to 10 mg/kg s.c.
Description: Groups of mice were injected subcutaneously with the stated drug and latencies in the tailflick test determined and compared to those obtained prior to testing. […] This compares with an analgesic rate of 100% of animals receiving oxymorphone HCl in other control experiments.

rats = details: cited from earlier work
mice [9] = assay: Oxymorphonazine analgesia in vivo (Tail-Flick Assay); design: species or system mouse; details: 25 μg in 5 μl of artificial CSF; for Analgesia (percent), 20 hr.: groups differ p<0.015, Fisher's Exact Test
Description: Mice were injected with either oxymorphone or oxymorphonazine (both 25 μg in 5 μl of artificial CSF) under Ethrane/oxygen anesthesia and tested for analgesia at the stated time. Analgesia was determined by Tail-Flick Assay. Quantal criteria, the doubling of the baseline latency for each individual animal, was used. At 20 hours, the oxymorphone and oxymorphonazine groups differed from each other at p<0.015 level, as determined by Fisher's Exact Test.

[10] = compound 2 μM, 30 min 25° C., four washes, ligand 0.8 nM, mean ± s.e.m. of three experiments

T1 sequence (P33535 whole entry): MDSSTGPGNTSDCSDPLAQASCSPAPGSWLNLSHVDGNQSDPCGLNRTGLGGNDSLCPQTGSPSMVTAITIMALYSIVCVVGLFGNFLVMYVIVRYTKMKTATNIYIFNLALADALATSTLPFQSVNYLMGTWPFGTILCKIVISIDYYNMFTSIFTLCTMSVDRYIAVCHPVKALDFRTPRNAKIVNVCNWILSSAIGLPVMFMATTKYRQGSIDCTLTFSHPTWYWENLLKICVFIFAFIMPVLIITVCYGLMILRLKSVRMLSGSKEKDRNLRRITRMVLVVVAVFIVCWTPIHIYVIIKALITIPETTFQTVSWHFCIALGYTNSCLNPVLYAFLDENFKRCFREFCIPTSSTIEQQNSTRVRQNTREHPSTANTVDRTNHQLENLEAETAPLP

## CN1CC[C@]23c4c5ccc(O)c4O[C@H]2[C@@H](O)C=C[C@H]3[C@H]1C5 [Morphine, morphine]
Prolactin release
  hormone release by morphine (in words): releases both hormones
Growth hormone release
  hormone release by morphine (in words): releases both hormones
Opiate receptors [1]
  irreversible inhibition of opiate receptor binding / activity (in words): show no irreversible inhibition

## C=CCN1CCC23c4c5ccc(O)c4OC2C(=NN=C2CCC4(O)C6Cc7ccc(O)c8c7C4(CCN6CC=C)C2O8)CCC3(O)C1C5 (centres unmarked) [Naloxonazine, naloxonazine]
Opiate receptors [2]; 2 uM, 30 min
  eliminated [^3 H]D-ala^2 -D-leu^5 -enkephalin binding: over 90%
Opiate receptors [2]
  Change in Binding (Percent), [^3 H]D-ala^2 -D-leu^5 -enkephalin: -93% ± 4
Duration of action
  duration of action (in words): in the order of days
Duration of action; listed as naloxonazine
  duration of action (in words): lasting far longer than conventional opiates
Opiate receptors [1]; low doses
  dose reproducing the irreversible blockade of opiate receptor binding by naloxazone: 50 nM

## NN=C1CCC2(O)C3Cc4ccc(O)c5c4C2(CCN3CC2CC2)C1O5 (centres unmarked) [Naltrexazone, naltrexazone]
Opiate receptors [2]
  irreversible inhibition of [^3 H]D-ala^2 -D-leu^5 -enkephalin binding (in words): small amount of inhibition
  Change in Binding (Percent), [^3 H]D-ala^2 -D-leu^5 -enkephalin: -17 ± 19%
[3]
  stability in solution: reaction to azine (in words): A trace amount of azine was present
Opiate receptors [4]
  IC50: 1.7 ± 0.2 nM
Opiate receptors [5]
  irreversible inhibition of [^3 H]dihydromorphine binding (in words): small amount of inhibition
Opiate receptors [5]; [10]
  inhibition at 2 µM: 31 ± 26%

## Oc1ccc2c3c1OC1C(=NN=C4CCC5(O)C6Cc7ccc(O)c8c7C5(CCN6CC5CC5)C4O8)CCC4(O)C(C2)N(CC2CC2)CCC314 (centres unmarked) [Naltrexonazine, naltrexonazine]
Opiate receptors [2]
  Change in Binding (Percent), [^3 H]D-ala^2 -D-leu^5 -enkephalin: -97 ± 3%
Opiate receptors [6]
  ^3 H-DADL Binding: 653 ± 85 cpm
  ^3 H-DADL Binding, change: -65%
Opiate receptors [4]
  IC50: 1.16 nM
Duration of action
  duration of action (in words): in the order of days
Duration of action; listed as naltrexonazine
  duration of action (in words): lasting far longer than conventional opiates
Opiate receptors [5]; [10]
  inhibition at 2 µM: 88 ± 12%
Opiate receptors [7]
  ^3 H-DHM Binding: 1183 ± 128 cpm
  inhibition at 0.1 µM: 66%
Opiate receptors [1]
  potency of irreversible block of opiate binding in vitro relative to corresponding hydrazone: 20-40 fold
Opiate receptors [1]; compared with naloxone and naltrexone
  selectivity for mu1 class versus naloxone and naltrexone (in words): far more selective for the mu1 class of opiate binding sites
Mice [8]; 10 mg/kg s.c.
  Tailflick Latencies, After 20 min: 2.50 ± 0.36 s
  Tailflick Latencies, After 40 min: 2.74 ± 0.49 s
Mice [8]
  Tailflick Latencies, Prior: 2.50 ± 0.34 s

## O=C1CC[C@@]2(O)[C@H]3Cc4ccc(O)c5c4[C@@]2(CCN3CC2CC2)[C@H]1O5 [Naltrexone, naltrexone]
Opiate receptors [1]
  removal of reversible ligand by washing (in words): effectively removed
rats
  suppression of eating behavior (known): effectively suppress eating behavior in rats
Mice [8]; 10 mg/kg s.c.
  Tailflick Latencies, After 20 min: 2.37 ± 0.31 s
  Tailflick Latencies, After 40 min: 2.59 ± 0.35 s
Mice [8]
  Tailflick Latencies, Prior: 2.63 ± 0.27 s

## CN1CCC23c4c5ccc(O)c4OC2C(=NN=C2CCC4(O)C6Cc7ccc(O)c8c7C4(CCN6CC4CC4)C2O8)CCC3(O)C1C5 (centres unmarked) [Naltrexone-oxymorphonazine, naltrexone-oxymorphonazine]
Opiate receptors [6]
  ^3 H-DADL Binding: 1205 ± 157 cpm
  ^3 H-DADL Binding, change: -33%
Opiate receptors [7]
  ^3 H-DHM Binding: 1487 ± 120 cpm
  inhibition at 0.1 µM: 57%
Opiate receptors [1]
  irreversible inhibition of opiate receptor binding / activity (in words): appear to irreversibly bind the opiate receptors
Mice [8]; 10 mg/kg s.c.
  Tailflick Latencies, After 20 min: 2.20 ± 0.35 s
  Tailflick Latencies, After 40 min: 2.29 ± 0.31 s
Mice [8]
  Tailflick Latencies, Prior: 2.44 ± 0.32 s
Mice [8]; doubling of baseline latencies, 10 mg/kg s.c.
  animals analgesic (in words): none of the animals receiving the mixed azine (naltrexone-oxymorphonazine) were analgesic
Mice [8]; in vivo tests of mixed agonist/antagonist compounds
  action in vivo (in words): act as antagonists

## CN1CCC23c4c5ccc(O)c4OC2C(=NN)CCC3(O)C1C5 (centres unmarked) [Oxymorphazone, oxymorphazone]
Opiate receptors [2]
  irreversible inhibition of [^3 H]D-ala^2 -D-leu^5 -enkephalin binding (in words): neither naloxazone nor oxymorphazone irreversibly inhibited the binding
  Change in Binding (Percent), [^3 H]D-ala^2 -D-leu^5 -enkephalin: 43% ± 24
[3]
  stability in solution: reaction to azine (in words): no azine formation could be detected
Opiate receptors [5]
  irreversible inhibition of [^3 H]dihydromorphine binding (in words): neither naloxazone nor oxymorphazone irreversibly inhibited the binding
Opiate receptors [5]; [10]
  inhibition at 2 µM: -3%

## CN1CCC23c4c5ccc(O)c4OC2C(=NN=C2CCC4(O)C6Cc7ccc(O)c8c7C4(CCN6C)C2O8)CCC3(O)C1C5 (centres unmarked) [Oxymorphonazine, oxymorphonazine]
Opiate receptors [2]
  Change in Binding (Percent), [^3 H]D-ala^2 -D-leu^5 -enkephalin: -59 ± 3%
Duration of action
  duration of action (in words): lasting far longer than conventional opiates
Opiate receptors [5]
  inhibition at 2 µM: 71 ± 4%
Mice [9]
  Analgesia (percent), 1 hr.: 100%
  Analgesia (percent), 4 hr.: 100%
  Analgesia (percent), 10 hr.: 100%
  Analgesia (percent), 20 hr.: 44%
Opiate receptors [1]
  potency of irreversible block of opiate binding in vitro relative to corresponding hydrazone: 20-40 fold

## CN1CC[C@]23c4c5ccc(O)c4O[C@H]2C(=O)CC[C@@]3(O)[C@H]1C5 [Oxymorphone, oxymorphone]
Mice [9]
  Analgesia (percent), 1 hr.: 100%
  Analgesia (percent), 4 hr.: 78%
  Analgesia (percent), 10 hr.: 33%
  Analgesia (percent), 20 hr.: 0%
Opiate receptors [1]
  removal of reversible ligand by washing (in words): effectively removed

## CN1CC[C@]23c4c5ccc(O)c4O[C@H]2C(=O)CC[C@@]3(O)[C@H]1C5 [oxymorphone HCl]
Mice [8]; other control experiments
  analgesic rate: 100%
